Tests used:
CT-26 cells = test: CT-26 syngeneic Balb/c mouse tumor model, tumor growth; type: in vivo; settings: CT-26 syngeneic mouse model
Experimental: CT-26 cells (0.5×10^6) were injected subcutaneously into the flanks of Balb/c mice (n=4-7) on day 0. When tumor volume reaches approximately 45 mm^3, the mice were injected (i.p.) anti-PD-1, 200 μg/mouse, twice per week. Aldose reductase inhibitor (ARI) (25 mg/kg/day) were given in drinking water or by gavage. CT26 tumor were left untreated (Con) or treated with fidarestat (Fid), anti-PD-1 (PD1) or combination of both (Combo). Con mice were also treated with isotype matched control antibodies (PD-1 iso). Tumor growth was measured twice per week and animals were euthanized when the tumor volume reaches 2000 mm^3 in the control mice (˜30 days). Tumor volume (A) and tumor weight (B) were measured. Data Mean S.E.M. P<0.05; *P<0.05; **P<0.01 by one-way ANOVA followed by Dunnet and Tukey's multiple comparison test.

MC38 cells = test: MC38 subcutaneous tumor model in C57BL/6 WT and ARKO mice, tumor growth; type: in vivo, mouse; settings: both the CRC models (CT26 and MC38)
Experimental: FIG. 7A-7D: AR deficiency/inhibition increases the efficacy of anti-PD1, decreases immune-related toxicities induced by anti-PD1 in CRC model, MC38. MC38 cells were inoculated subcutaneous in C57BL/6 WT and aldose reductase knockout (ARKO) mice. When tumors became palpable (approximately 40-43 mm^3), mice were randomized and treated with anti-PD-1 (twice a week), AR inhibitor (25 mg/kg/day in drinking water). MC38 tumor was left untreated in Con WT and ARKO or treated with Fid in WT, anti-PD-1 (PD1) in WT and ARKO or combination of both (Combo) in WT mice. Con WT and ARKO mice were also treated with isotype controls (PD-1 iso). […] Tumor growth was measured twice a week and animals were euthanized when the tumor volume reaches 2000 mm^3 in the control mice (approximately 27 days). […] Isolated TILs from tumors were analyzed by flow cytometry for intracellular staining of IFN-γ and granzyme B to analyze the effector function of CD8^+ T and NK cells in TILs. […]
MC38 cells were inoculated subcutaneous in C57BL/6 WT and aldose reductase knockout (ARKO) mice. […] Tumor growth was measured twice a week and animals were euthanized when the tumor volume reaches 2000 mm^3 in the control mice (approximately 27 days). […] Isolated TILs from tumors were analyzed by flow cytometry for intracellular staining of IFN-γ and granzyme B to analyze the effector function of CD8^+ T and NK cells in TILs. […]

colorectal cancer cells = test: Sensitivity of colorectal cancer cells to doxorubicin; type: cell-based; settings: earlier studies of the inventors
Text: The inventors have also shown that AR inhibition prevents colorectal cancer cells growth in tissue culture, nude mouse xenografts, and chemically-induced animal models of colorectal cancer. Based on these studies, the inventors investigated whether an AR inhibitor such as fidarestat could be used as combination therapy along with immune checkpoint inhibitor such as an anti-PD1 antibody resulting in an increase in the immunotherapeutic efficacy of anti-PD1 and prevent CRC growth.

[1] = Cardiotoxicity associated with anthracycline drugs; settings: earlier studies of the inventors
[2] = Phase-III clinical trial, diabetic nephropathy; cited from earlier work

NC(=O)[C@@H]1C[C@]2(NC(=O)NC2=O)c2cc(F)ccc2O1 [fidarestat, (2S,4S)-6-fluoro-2′,5′-dioxospiro(chroman-4,4′-imidazolidine)-2-carboxamide]
sensitivity of anti-PD1 immunotherapy (CT-26 cells): significantly increases the sensitivity of anti-PD1 immunotherapy
efficacy of anti-PD1 and tumor growth (MC38 cells): increases the efficacy of anti-PD1 and decreases the tumor growth
sensitivity of colorectal cancer cells to doxorubicin (colorectal cancer cells): increased the sensitivity
cardiotoxicity associated with anthracycline drugs [1]: prevented cardiotoxicity
side effects [2]: no major side effects

— patent US12090142B2, “Combination therapy for the treatment of cancer” (The Board of Regents of the University of Texas System, priority 2018, dated 2024)
